Experiments:
[1] = Chemical stability in 1% NaOH in MeOH (HPLC); format: physicochemical
Method: (§1) The relative chemical stability of glabridin of Preparation Example 1, Example 3 (Compound 4), Example 4 (Compound 5) and Example 14 (Compound 15) were compared with each other. That is, 50 mg of each of glabridin, Compound 4, Compound 5, and Compound 15 was exactly weighed, dissolved in 50 ml of 1% HCl in MeOH and 10 ml of 1% NaOH in MeOH, and the concentrations of the compounds were examined by HPLC at each time level of 0, 8 hrs, 12 hrs, 24 hrs, 48 hrs, and 72 hrs. At this time, the concentrations of the compounds remaining in 1% HCl in MeOH and 1% NaOH in MeOH were determined using an internal standard (Compound 14 of Example 13). That is, 10 mg of Compound 14 was exactly weighed and dissolved in 100 ml of acetonitrile, 9 ml of this solution was mixed with 1 ml of the sample aliquoted at each time level, the mixture was analyzed by HPLC, and the concentrations of the compounds in the internal standard and in the above samples were determined by comparing the initial values.
(§2) The concentrations of the compounds remaining in 1% HCl in MeOH and 1% NaOH in MeOH at each time level are in the following Table 8 and FIG. 7 and the following Table 9 and FIG. 8, respectively.
(§3) The numerical values exceeding 100% in the following Tables 8 and 9 show those measured at a concentration is slightly higher than the initial measurement value, and this is due to the fact that an average value of the measured values was simply shown without considering a statistical error generated during the measurement. Since the measured value of about 95% or more is deemed to have practically no change in concentration, it may be seen that the compounds of the present invention are excellent in chemical stability.

RAW264.7 macrophages = test: RAW264.7 macrophage NO assay (LPS-induced NO production, Griess reagent); format: cell-based; conditions: for IC50: Mus musculus, RAW264.7, NO production, LPS 1 μg/ml, 24 hours
Method: (§4) After the pretreatment, the MTT (Sigma, M2128) reagent at a concentration of 0.5 mg/ml was further added thereto. After the cells were cultured in a 5% CO2 incubator for 4 hours, the supernatant was discarded, 150 μl of DMSO was added and was shaken for 30 minutes, and an ELISA micro plate reader (Bio Rad Laboratories Inc., California, USA, Model 680) was used to measure the absorbance at a wavelength of 540 nm. All the experimental values were calculated as an average value of three repeated experimental values of the cell protection rate for the control group, and an experiment of suppressing the NO production for each compound was carried out at a concentration in which no cytotoxicity was shown.
After the reaction, an ELISA micro plate reader (Bio Rad Laboratories Inc., California, USA, Model 680) was used to measure the absorbance at a wavelength of 540 nm. The suppression rate was calculated as a difference in amount of NO produced between the control group and the experimental group, and as shown in the following Table 7, Compounds 4, 5, 15, 16, 18, and the like of the present invention were excellent in the effect of suppressing the production of NO.

BV2 microglia cells = test: BV2 cell NO assay (LPS-induced NO production, Griess reagent); format: cell-based; conditions: Mus musculus, BV-2, LPS 1 μg/ml, 24 hours
Method: as §4, with “pretreatment, 0.5 mg/ml of” for “pretreatment,”, “reagent” for “reagent at a concentration of 0.5 mg/ml”, “incubator,” for “incubator for 4 hours,”
After the reaction, an ELISA micro plate reader (Bio Rad Laboratories Inc., California, USA, Model 680) was used to measure the absorbance at a wavelength of 540 nm. The suppression rate was calculated as a difference in amount of NO produced between the control group and the experimental group, and as shown in the following Table 6 and FIG. 6, Compounds 4, 5, 15, 16, 18, and the like of the present invention were excellent in the effect of suppressing the production of NO, and the effect is also about 5 times to about 9 times better than that of glabridin.

PTP1B = PTP1B (Homo sapiens (Human), UniProt P18031); test: Experiment of PTP1B inhibition (p-NPP dephosphorylation); format: biochemical; conditions: 2 mM p-NPP substrate, 30° C., 30 minutes
Chain of PTP1B (P18031 whole entry, species assumed): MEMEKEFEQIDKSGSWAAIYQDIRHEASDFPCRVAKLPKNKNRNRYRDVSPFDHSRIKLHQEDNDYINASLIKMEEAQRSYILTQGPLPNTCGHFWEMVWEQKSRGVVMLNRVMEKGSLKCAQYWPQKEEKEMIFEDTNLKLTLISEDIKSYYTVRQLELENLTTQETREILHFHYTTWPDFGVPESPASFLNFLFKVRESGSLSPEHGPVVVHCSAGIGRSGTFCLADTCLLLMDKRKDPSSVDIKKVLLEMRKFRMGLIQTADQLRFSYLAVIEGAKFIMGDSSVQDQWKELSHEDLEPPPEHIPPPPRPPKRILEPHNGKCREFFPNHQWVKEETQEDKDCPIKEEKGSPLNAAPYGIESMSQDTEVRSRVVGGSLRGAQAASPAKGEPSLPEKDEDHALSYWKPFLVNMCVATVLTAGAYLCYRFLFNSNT
Source text: With respect to PTP1B, the degrees of inhibition (IC50 The half maximal inhibitory concentration) of glabridin, and compounds of Preparation Example 2 (Compound 1), Example 2 (Compound 3), Example 3 (Compound 4), Example 4 (Compound 5), Example 13 (Compound 14), Example 14 (Compound 15), Example 15 (Compound 16), Example 17 (Compound 18), Example 18 (Compound 19) and Example 20 (Compound 21) were compared to each other. For this purpose, the degree of inhibition activity for PTP1B was investigated by using 2 mM p-nitrophenyl phosphate (p-NPP) as a substrate to measure the dephosphorylation degree. First, PTP1B diluted with distilled water was reacted with 2 mM p-nitrophenyl phosphate {p-NPP, 0.1 M NaCl, 1 mM EDTA, 50 mM citrate pH 6.0, and 1 mM dithiothreitol (DTT)} and Compound 1 at various concentrations at 30° C. for 30 minutes, and then the reaction was terminated with a 1 N-sodium hydroxide (NaOH) solution. The absorbance of the samples thus prepared was measured to confirm the inhibition degree (IC50: The half maximal inhibitory concentration) for PTP1B activity according to the concentration of Compound 1. Even for glabridin, Compound 3, Compound 4, Compound 5, Compound 14, Compound 15, Compound 16, Compound 18, Compound 19, and Compound 21, the same measurement was performed.

DIO mice [2] = test: Anti-obesity effect for DIO mice (body weight); format: in vivo, C57BL/6 mice; conditions: Mus musculus, 672 h; 4 weeks, 150 mg/kg, oral gavage once daily
Method: (§5) Five-week-old female C57BL/6 mice (Narabio Co., Ltd.) were purchased and fed with only high-fat diet for at least 10 weeks to produce diet induced obesity ([…]) mice. Samples were exactly taken from Preparation Example 1 (glabridin) and the compounds of Examples of the present invention (Compounds 1 to 5, 7, 9, 11, 14 to 16, 21, and 23) according to the administration dose and put into Falcon tubes, 3 ml of a 0.5% methyl cellulose aqueous solution was added thereto and a vortex mixer was used to primarily mix the ingredients in a soft manner, and then a homogenizer (30,000 rpm, Ultra-Turrax® T10 Basic, IKA) was used to treat the sample for 3 minutes while 1.5 ml of a 0.5% methyl cellulose aqueous solution was added thereto. The sample thus prepared was administered through oral gavage using a disposable plastic syringe once daily for 28 days (4 weeks). The body weight was measured twice a week while the DIO mice were bred in this manner. Based on the data thus calculated, the anti-obesity effect (%) was calculated according to the equation defined as follows. Anti-Obesity Effect={(Body weight of control group)−(Body weight of experimental group)}/(Body weight of control group)×100

[3] = Chemical stability in 1% HCl in MeOH (HPLC); format: physicochemical
Method: as §1, §2, §3

DIO mice [4] = test: Organ weights and blood biochemistry of DIO mice after 28 days of administration; format: in vivo, C57BL/6 mice; conditions: 150 mg/kg
Method: as §5
After the experiment was performed for 28 days (4 weeks) as described above, blood was simultaneously taken while the experimental animal was finally sacrificed, and each of the organs (liver, heart, kidney, pancreas, fat tissues and the like) was removed to measure the weight and observe peculiar matters.
In Table 3, { }, ( ) and the like were used in order to differentiate experiments which had been performed at different periods. Experiments without the parenthesis were those simultaneously performed under the same conditions.

C2C12 cells = test: Glucose uptake (2-NBDG) in C2C12 cells; format: cell-based; conditions: 24 hours
Method: In terms of capacity of glucose uptake in C2C12 cells, the compound (Compound 15) of Example 14 of the present invention was compared with the existing Rosiglytazone and Metformin which were used or are currently used as a therapeutic agent for diabetes. The C2C12 cell was cultured in a Dulbecco's modified eagle medium (DMEM) supplemented with 10% fetal bovine serum (FBS), penicillin (120 unit/mL), and streptomycin (75 μg/mL), the medium used for differentiation was a DMEM medium supplemented with 1% horse serum, and the C2C12 cell was cultured in the DMEM medium for 4 days. The cell thus cultured was treated with Compound 15 in a low-glucose, serum-free medium supplemented with 2-[N-(7-nitrobenz-2-oxa-1,3-diazol-4-yl)amino]-2-deoxy-d-glucose (2-NBDG) for 24 hours to measure the glucose absorbance at an excitation wavelength of 485 nm and an emission wavelength of 535 nm using a fluorescent detector. The same experiment was performed on Rosiglytazone and Metformin.

Compound	concentration of compound remaining [1]; 0	concentration of compound remaining ([1]; 8 h)	concentration of compound remaining ([1]; 24 h)	concentration of compound remaining ([1]; 48 h)	concentration of compound remaining ([1]; 72 h)	IC50 (RAW264.7 macrophages)	IC50 (BV2 microglia cells)	IC50 (PTP1B)	inhibition in vivo at 150 mg/kg (DIO mice [2])	concentration of compound remaining [3]; 0	concentration of compound remaining ([3]; 8 h)	concentration of compound remaining ([3]; 24 h)	concentration of compound remaining ([3]; 48 h)	concentration of compound remaining ([3]; 72 h)	other results
CCc1ccc(C2COc3c(ccc4c3CCC(C)(C)O4)C2)c(O)c1 (stereo not drawn) [Compound 4, 3-(2-hydroxy-4-ethylphenyl)-8,8-dimethyl-2,3,4,8,9,10-hexahydropyrano [2,3-f] chromene]	100%	101%	101%	99%	100%	8.6 µM	3.7 µM	2.9 µM	18%	100%	99%	101%	101%	100%	stability in words ([1]; until 3 days (72 hours)): very stable; effect of suppressing the production of NO (RAW264.7 macrophages; RAW264.7 macrophages, in words): excellent; stability in words ([3]; until 3 days (72 hours)): very stable; ALT (U/L) (DIO mice [4]; ( ) experiment): (58) U/L; AST (U/L) (DIO mice [4]; ( ) experiment): (209) U/L; BMI (DIO mice [4]; ( ) experiment): (2.9); FFA (μEq/L) (DIO mice [4]; ( ) experiment): (2380) μEq/L; Fat (g), weight of fat removed around the epididymis and the kidney (DIO mice [4]; ( ) experiment): (1.20) g; LDL (mg/dL) (DIO mice [4]; ( ) experiment): (18) mg/dL; Liver (g), weight of liver (DIO mice [4]; ( ) experiment): (1.25) g
CC1(C)C=Cc2c(ccc3c2OC[C@@H](c2ccc(O)cc2O)C3)O1 [Glabridin, glabridin, reference compound]	100%	71%	38%	23%	13%	9.3 µM	19.6 µM	48 µM	2%	100%	99%	94%	82%	74%	ALT (U/L) (DIO mice [4]; experiment without parenthesis): 41 U/L; AST (U/L) (DIO mice [4]; experiment without parenthesis): 90 U/L; BMI (DIO mice [4]; experiment without parenthesis): 4.2; FFA (μEq/L) (DIO mice [4]; experiment without parenthesis): 1520 μEq/L; Fat (g), weight of fat removed around the epididymis and the kidney (DIO mice [4]; experiment without parenthesis): 2.70 g; LDL (DIO mice [4]; experiment without parenthesis): 10 mg/dL; Liver (g), weight of liver (DIO mice [4]; experiment without parenthesis): 1.23 g; ALT (U/L) (DIO mice [4]; { } experiment): {89} U/L; AST (U/L) (DIO mice [4]; { } experiment): {170} U/L; BMI (DIO mice [4]; { } experiment): {4.2}; FFA (μEq/L) (DIO mice [4]; { } experiment): {1913} μEq/L; Fat (g), weight of fat removed around the epididymis and the kidney (DIO mice [4]; { } experiment): {1.92} g; LDL (mg/dL) (DIO mice [4]; { } experiment): {17} mg/dL; Liver (g), weight of liver (DIO mice [4]; { } experiment): {1.48} g
CN(C)C(=N)N=C(N)N [Metformin]															2-NBDG uptake (Fold Induction) (C2C12 cells; treatment concentration 20 μM): 1.89 ± 0.03 Fold Induction
CN(CCOc1ccc(CC2SC(=O)NC2=O)cc1)c1ccccn1 (stereo not drawn) [Rosiglytazone]															2-NBDG uptake (Fold Induction) (C2C12 cells; treatment concentration 50 μM): 1.94 ± 0.15 Fold Induction
